Series [1] is described as follows: Antiproliferative activity against human ALL5 cells after 120 hrs by MTT assay. Particulars: ALL5, 120 h. The series is classed as functional, cell-based.
Series [2] deals with LoVo. As to the kind of experiment: Antiproliferative activity against human LoVo cells after 72 hrs by SRB assay. The series is classed as functional, cell-based. (In general: The SRB assay estimates cell density from bound dye.)
Series [3] in a line: Antiproliferative activity against human LoVo/DX cells after 72 hrs by SRB assay. It counts as functional, cell-based.
Series [4] deals with JIMT-1. The series is described as follows: Antiproliferative activity against human JIMT1 cells after 72 hrs by SRB assay. It counts as functional, cell-based. Conditions: JIMT-1, 72 h.
Series [5] deals with SK-BR-3. As to the kind of experiment: Antiproliferative activity against human SK-BR-3 cells after 72 hrs by SRB assay. It counts as functional, cell-based. Conditions: SK-BR-3, 72 h.
For series [6], the system named is MCF7. As to the kind of experiment: Antiproliferative activity against human MCF7 cells after 72 hrs by SRB assay. Conditions: MCF7, 72 h. The series is classed as functional, cell-based.
Series [7] relates to MCF-10A. As to the kind of experiment: Antiproliferative activity against human MCF10A cells after 72 hrs by SRB assay. It counts as cell-based.
Series [8] is described as follows: Selectivity index, ratio of IC50 for human MCF10A cells to IC50 for human LoVo/DX cells. It counts as toxicity. Particulars: MCF10A cells versus LoVo/DX cells, read-out: Ratio IC50.
Series [9] can be described thus: Resistance index, ratio of IC50 for human LoVo/DX cells to IC50 for human LoVo cells. It counts as functional.
The nature of series [10]: Selectivity index, ratio of IC50 for human MCF10A cells to IC50 for human ALL5 cells. Particulars: MCF10A cells versus ALL5 cells, read-out: Ratio IC50. It counts as toxicity.
Series [11] in a line: Selectivity index, ratio of IC50 for human MCF10A cells to IC50 for human LoVo cells. It counts as toxicity. Particulars: MCF10A cells versus LoVo cells, read-out: Ratio IC50.
The nature of series [12]: Selectivity index, ratio of IC50 for human MCF10A cells to IC50 for human JIMT1 cells. The series is classed as toxicity. Conditions: MCF10A cells versus JIMT1 cells, read-out: Ratio IC50.
The nature of series [13]: Selectivity index, ratio of IC50 for human MCF10A cells to IC50 for human SK-BR-3 cells. The series is classed as toxicity. Particulars: MCF10A cells versus SK-BR-3 cells, read-out: Ratio IC50.
Series [14] in a line: Selectivity index, ratio of IC50 for human MCF10A cells to IC50 for human MCF7 cells. It counts as toxicity. Conditions: MCF10A cells versus MCF7 cells, read-out: Ratio IC50.
Series [15] can be described thus: Cell cycle arrest in human ALL5 cells assessed as accumulation at sub-G1 phase at 5 times antiproliferative IC50 after 24 hrs by propidium iodide staining based flow cytometry (reference value: 6.07%). It counts as functional. In general terms: In flow cytometry, cells or beads pass a laser one at a time.
Series [16] is described as follows: Cell cycle arrest in human ALL5 cells assessed as accumulation at G0/G1 phase at 5 times antiproliferative IC50 after 24 hrs by propidium iodide staining based flow cytometry (reference value: 79.7%). The series is classed as functional.
Series [17] is described as follows: Cell cycle arrest in human ALL5 cells assessed as accumulation at S-phase at 5 times antiproliferative IC50 after 24 hrs by propidium iodide staining based flow cytometry (reference value: 6.76%). The series is classed as functional.
Series [18] can be described thus: Cell cycle arrest in human ALL5 cells assessed as accumulation at G2/M-phase at 5 times antiproliferative IC50 after 24 hrs by propidium iodide staining based flow cytometry (reference value: 7.98%). The series is classed as functional.
Series [19] can be described thus: Cell cycle arrest in human ALL5 cells assessed as accumulation at sub-G1 phase at 5 times antiproliferative IC50 after 48 hrs by propidium iodide staining based flow cytometry (reference value: 7.8%). The series is classed as functional.
The nature of series [20]: Cell cycle arrest in human ALL5 cells assessed as accumulation at G0/G1 phase at 5 times antiproliferative IC50 after 48 hrs by propidium iodide staining based flow cytometry (reference value: 69.6%). It counts as functional.
A short description of series [21]: Cell cycle arrest in human ALL5 cells assessed as accumulation at S-phase at 5 times antiproliferative IC50 after 48 hrs by propidium iodide staining based flow cytometry (reference value: 9.82%). It counts as functional.
Series [22] in a line: Cell cycle arrest in human ALL5 cells assessed as accumulation at G2/M-phase at 5 times antiproliferative IC50 after 48 hrs by propidium iodide staining based flow cytometry (reference value: 13.2%). The series is classed as functional.
The nature of series [23]: Cell cycle arrest in human ALL5 cells assessed as accumulation at sub-G1 phase at 5 times antiproliferative IC50 after 96 hrs by propidium iodide staining based flow cytometry (reference value: 12%). It counts as functional.
Series [24] can be described thus: Cell cycle arrest in human ALL5 cells assessed as accumulation at G0/G1 phase at 5 times antiproliferative IC50 after 96 hrs by propidium iodide staining based flow cytometry (reference value: 69.8%). The series is classed as functional.
The nature of series [25]: Cell cycle arrest in human ALL5 cells assessed as accumulation at S-phase at 5 times antiproliferative IC50 after 96 hrs by propidium iodide staining based flow cytometry (reference value: 7.52%). The series is classed as functional.
The nature of series [26]: Cell cycle arrest in human ALL5 cells assessed as accumulation at G2/M-phase at 5 times antiproliferative IC50 after 96 hrs by propidium iodide staining based flow cytometry (reference value: 11.1%). It counts as functional.

The IC50 is the concentration needed to halve the response being measured. A lower IC50 goes with greater potency in that assay.

Consider `CC[C@@H](C(=O)[C@@H](C)[C@@H](O)[C@H](C)[C@@H]1O[C@@H]([C@@H](CC)C(=O)OCC(F)(F)F)CC[C@@H]1C)[C@H]1O[C@]2(C=C[C@@H](O)[C@]3(CC[C@@](C)([C@H]4CC[C@](O)(CC)[C@H](C)O4)O3)O2)[C@H](C)C[C@@H]1C`, for which the concentration for half-maximal inhibition (IC50) in series [1] came to 1.2 µM; in series [2], 3.9 µM; in series [3], 3.9 µM; in series [4] it was 4.6 µM; in series [5] it was 17 µM; in series [6] it was 4.4 µM. The compound further returned a half-inhibitory concentration (IC50) in series [7] of 43 µM. The selectivity ratio in series [8] was found to be 11; in series [10] it was 36; in series [11], 11; in series [12], 9.3; in [13] it was 2.5; in series [14], 9.8. Besides, the “Ratio IC50” value in series [9] came out at 1.
`CCNC(=O)O[C@@H]1C=C[C@]2(O[C@H]([C@@H](CC)C(=O)[C@@H](C)[C@@H](O)[C@H](C)[C@@H]3O[C@@H]([C@@H](CC)C(=O)OCC(F)(F)F)CC[C@@H]3C)[C@@H](C)C[C@H]2C)O[C@@]12CC[C@@](C)([C@H]1CC[C@](O)(CC)[C@H](C)O1)O2`: the half-maximal inhibitory concentration (IC50) came out at 1.5 µM in series [1]; 5.3 µM in [2]; 7.5 µM in series [3]; 11 µM in series [4]; 64 µM in [5]; 6.1 µM in series [6]. The compound further showed an IC50 in series [7] of 60 µM. In addition, the Activity in series [15] came out at 11%; in series [16], 76%; in series [17], 4.98%; in [18] it was 8.15%; in series [19] it was 19.8%; in series [20] it was 64.1%. In addition, the Activity in series [21] is 4.5%; in [22], 11.8%; in series [23], 27.8%; in [24] it was 56%; in series [25] it was 5.42%; in [26], 11%. Further, the selectivity ratio is 8 in series [8]; 40 in series [10]; 11 in series [11]; 5.5 in series [12]; 0.94 in series [13]; 9.8 in series [14]. The “Ratio IC50” value in series [9] came to 1.4.
In the case of `CC[C@@H](C(=O)[C@@H](C)[C@@H](O)[C@H](C)[C@@H]1O[C@@H]([C@@H](CC)C(=O)NCCc2ccc(F)cc2)CC[C@@H]1C)[C@H]1O[C@]2(C=C[C@@H](O)[C@]3(CC[C@@](C)([C@H]4CC[C@](O)(CC)[C@H](C)O4)O3)O2)[C@H](C)C[C@@H]1C`, the IC50 in [1] was 1.7 µM; in series [2] it was 3.8 µM; in [3], 2.5 µM; in [4], 5.1 µM; in series [5], 5.6 µM; in series [6], 4.1 µM. This compound had an IC50 in series [7] of 40 µM. For the same compound, the selectivity ratio came out at 16 in series [8]; 24 in series [10]; 11 in [11]; 7.8 in series [12]; 7.1 in series [13]; 9.8 in series [14]. In addition, the “Ratio IC50” value in [9] is reported as 0.66.
Regarding `C#CCOC(=O)[C@H](CC)[C@H]1CC[C@H](C)[C@H]([C@@H](C)[C@H](O)[C@H](C)C(=O)[C@H](CC)[C@H]2O[C@]3(C=C[C@@H](O)[C@]4(CC[C@@](C)([C@H]5CC[C@](O)(CC)[C@H](C)O5)O4)O3)[C@H](C)C[C@@H]2C)O1`, the IC50 amounted to 3.3 µM in series [1]; 3.9 µM in series [2]; 2.6 µM in series [3]; 6.2 µM in series [4]; 8.5 µM in series [5]; 4.3 µM in series [6]. In series [7], this compound returned an IC50 of 54 µM. For the same compound, the Activity in series [15] is 16.2%; in series [16], 71.3%; in series [17], 4.34%; in series [18], 8.24%; in series [19] it was 39.8%; in [20], 51.7%. The Activity in [21] stood at 3.58%; in [22], 5.35%; in [23], 49.8%; in series [24], 42.8%; in series [25], 2.95%; in [26] it was 4.64%. Moreover, the selectivity ratio in series [8] was 21; in series [10], 16; in series [11], 14; in [12], 8.7; in [13], 6.4; in [14], 13. Besides, the “Ratio IC50” value in series [9] is 0.67.
`C#CCNC(=O)[C@H](CC)[C@H]1CC[C@H](C)[C@H]([C@@H](C)[C@H](O)[C@H](C)C(=O)[C@H](CC)[C@H]2O[C@]3(C=C[C@@H](OC(C)=O)[C@]4(CC[C@@](C)([C@H]5CC[C@](O)(CC)[C@H](C)O5)O4)O3)[C@H](C)C[C@@H]2C)O1`: the concentration for half-maximal inhibition (IC50) was 4 µM in series [1]; 4.4 µM in series [2]; 3.7 µM in series [3]; 17 µM in series [4]; 12 µM in series [5]; 5.8 µM in series [6]. The same compound registered an IC50 in series [7] of 92 µM. Moreover, the Activity is 14.5% in [15]; 77.1% in series [16]; 3.48% in series [17]; 5.01% in series [18]; 34.3% in [19]; 58.9% in series [20]. The Activity in series [21] came to 1.75%; in series [22], 5.11%; in series [23], 76.3%; in series [24], 20.6%; in series [25], 2.15%; in [26], 1.27%. Further, the selectivity ratio was 25 in series [8]; 23 in [10]; 21 in [11]; 5.4 in [12]; 7.7 in series [13]; 16 in [14]. Moreover, the “Ratio IC50” value in series [9] is on record as 0.84.
As to `CCNC(=O)O[C@@H]1C=C[C@]2(O[C@H]([C@@H](CC)C(=O)[C@@H](C)[C@@H](O)[C@H](C)[C@@H]3O[C@@H]([C@@H](CC)C(=O)NCCc4ccc(F)cc4)CC[C@@H]3C)[C@@H](C)C[C@H]2C)O[C@@]12CC[C@@](C)([C@H]1CC[C@](O)(CC)[C@H](C)O1)O2`, the IC50 in series [1] was found to be 2.9 µM; in series [2] it was 3.5 µM; in series [3] it was 3.3 µM; in series [4], 4.4 µM; in series [5], 4.3 µM; in series [6], 3.8 µM. Further, half-maximal inhibition in series [7] (IC50) required 58 µM. Besides, the Activity in series [15] is given as 9.23%; in [16], 80.9%; in [17] it was 3.8%; in series [18] it was 6.14%; in series [19], 21.8%; in series [20] it was 71.6%. For the same compound, the Activity is given as 1.5% in series [21]; 5.34% in [22]; 53.7% in series [23]; 42.5% in [24]; 2.28% in series [25]; 1.82% in series [26]. Also, the selectivity ratio amounted to 18 in series [8]; 20 in [10]; 17 in series [11]; 13 in series [12]; 13 in series [13]; 15 in series [14]. Also, in series [9], the “Ratio IC50” value is 0.94.

The values are drawn from ChEMBL document CHEMBL4270561, “Biological activity of doubly modified salinomycin analogs - Evaluation in vitro and ex vivo” (Eur J Med Chem, 2018).
